Data reported in US20210093521A1, “ANTIBACTERIAL ACTIVITY BY MG COMPLEX IN DEODORANT EMULSION FOR AEROSOLS, DEODORANT INCLUDING THE SAME AND USE OF THE DEODORANT” (Henkel AG & Co. KGaA, priority 2019, published 2021).

Experiments:
[1] = test system: bacterial germs known to cause body odor; assay: inhibition yard test, both germs tested; format: cell-based, Staphylococcus epidermidis, Staphylococcus hominis; conditions: agent within the deodorant emulsion
Description: The inhibition yard test (or agar diffusion test) is used to investigate the growth-inhibiting effect of substances or mixtures of substances on the most important bacterial germs known to cause body odor. For this purpose, the pathogen-containing material is spread out on a culture medium (usually on an agar layer within a Petri dish). Filter paper discs impregnated with the mixture of active substances to be tested or with a control without an active substance are placed on the bacterial layer so that the active substances can penetrate the material and spread there. If the test substance has an antimicrobial effect, clearly visible circles, so-called inhibition yards, form around the filter paper discs due to the inhibition of the pathogen growth. These can be measured in mm diameter.
An inhibition yard test was performed with deodorant emulsions containing the following potential or actual bacterial growth inhibiting additives (the amounts are given in weight %)

[2] = test system: four bacteria that cause body odor; assay: membrane test, statements in text for all tested species; format: cell-based, Staphylococcus, Corynebacterium and Anaerococcus species; conditions: 14 h, agent or formulation in deodorant emulsion

Row | Molecule | antibacterial effect in the deodorant emulsion (inhibition zone) [1] | antibacterial effectiveness in the membrane test [2]
1 | Benzalkonium chloride | good effect even in small quantities | good effect
2 | CCCCCCC(CCCC)C(=O)O (stereo not drawn) [Isocarb, 2-butyloctanioc acid] | no effect | –
